The text below walks through data of patent publication US12648937B2, “Composition containing levamlodipine besylate hydrate and its preparation method” (SHIHUIDA PHARMACEUTICALS GROUP (JILIN) LTD., priority 2019, dated 2026).

A short description of series [1]: Material properties (granulation, stickiness, sieving) of levamlodipine besylate hydrate composition granules. Conditions: granules of given crystalline water content, finishing of granulation, 10 mesh. It counts as physicochemical. The source says: In order to meet the requirements for the production of solid-form preparation plain tablets, the preparation is a direct compression method. As such, the granules of the active pharmaceutical ingredient need to pass through a sieve below 10 mesh to ensure content uniformity. […] A hydrate composition with a crystalline water content of less than 5.8% can meet the requirements of the finishing of granulation. […] The crystalline water content of the hydrate being controlled below 5.5% can better meet the requirements of making pharmaceutical preparations. 1. Production of Samples: the method of Example 2 is used to prepare samples with corresponding water content.

The nature of series [2]: Thermal stability of hydrate compositions, 45° C. oven for 5 days, impurities by HPLC. It counts as physicochemical. Conditions: for Impurity Content, impurities before heating of sample: 0 days; for Impurity Content, sample placed in 45° C. oven for 5 days: amber glass bottles. The procedure:
Using the method of Example 2 of the present invention, compositions with different crystalline water content can be prepared and used as samples to test thermal stability.
The samples are placed in amber glass bottles, placed in an oven, and the temperature is adjusted to 45° C., and the relevant substances are tested after settled for 5 days.
The test method is as follows: The chromatographic conditions and system applicability test: Use octadecylsilane-bonded silica gel as the filler; methanol-0.03 mol/L potassium dihydrogen phosphate solution (75:25) as the mobile phase, the detection wavelength is 238 nm, the number of theoretical plates should be no less than 500 calculated in levamlodipine.
Preparation of the Test Solution: Take about 17 mg of this product, precisely weigh it, put it in a 100 ml volumetric flask, add a mobile phase to dissolve and dilute to the mark, shake well, precisely measure 5 ml, put it in a 25 ml volumetric flask, add a mobile phase to the mark, shake well to obtain the solution.
Determination Method: Precisely measure 10 μl of the reference solution and the test solution, inject into the liquid chromatography machine, record the chromatogram, measure the peak area, and calculate by the external standard method.

Series [3] is described as follows: Acute toxicity (LD50, Bliss method) of levamlodipine besylate hydrate composition tablets. Conditions: Kunming, mouse, in vivo. The procedure: In this experiment the tablet formulation is the one of Example 5, in which the crystalline water content of the levamlodipine besylate hydrate composition is 5.3%.
In this experiment, the LD50 is measured by two administration routes. […] Animals: Kunming mice, half male and half […], each weighing 18-28 g, 10 animals in each group, fasted for 16 hours before use. Dosage: Oral administration: […], 0.6580 (g/kg), intraperitoneal administration: 0.7743, 0.6582, 0.5594, 0.4755, 0.4042 (g/kg) dose gradient: 0.85. Route of administration: experimental methods of oral administration and intraperitoneal administration, 100 mice are selected, fasted for 16 hours, and randomly divided into 10 groups. Oral administration to the first 5 groups, and the dose being 0.35 ml/10 g; intraperitoneal administration to the latter 5 groups, and the dose being 0.2 ml/10 g.

Turning to `CCOC(=O)C1=C(COCCN)NC(C)=C(C(=O)OC)[C@@H]1c1ccccc1Cl.O=S(=O)(O)c1ccccc1` [6.0%], the “Sieving Performance” value in series [1] is on record as “stick together even”.
For the compound `CCOC(=O)C1=C(COCCN)NC(C)=C(C(=O)OC)[C@@H]1c1ccccc1Cl.O=S(=O)(O)c1ccccc1` [Sample 3], the “Impurity Content, impurities before heating of sample” value (shortened to “Impurity Content … of sample”) in series [2] is listed as “None”. Moreover, the “Impurity Content, sample placed in 45° C. oven for 5 days” value (“Impurity Content, sample placed” below) in series [2] (45° C. oven, 5 days) is “None”.
Consider `CCOC(=O)C1=C(COCCN)NC(C)=C(C(=O)OC)[C@@H]1c1ccccc1Cl.O=S(=O)(O)c1ccccc1` [5.8%], for which, in series [1], the “Sieving Performance” value is reported as “have essentially no” and the Stickiness result is given as “essentially no”.
The LD50 is the dose at which mortality reaches 50%. High values mean a less toxic substance, low ones a more toxic substance. Turning to `CCOC(=O)C1=C(COCCN)NC(C)=C(C(=O)OC)[C@@H]1c1ccccc1Cl.O=S(=O)(O)c1ccccc1` [(4 s)-2-[(2-aminoethoxy)methyl]-4-(2-chlorophenyl)-6-methyl-1,4-dihydro-3,5-pyridinedicarboxylic acid-3-ethyl ester, 5-methyl ester benzenesulfonate hydrate], the LD50 at 7 days in series [3] (ip) came out at 16 ± 1.38 mg/kg; in series [3] (po) it was 24.9 ± 1.75 mg/kg.
On to `CCOC(=O)C1=C(COCCN)NC(C)=C(C(=O)OC)[C@@H]1c1ccccc1Cl.O=S(=O)(O)c1ccccc1` [Sample 2], for which, in series [2], the “Impurity Content … of sample” value is given as “None”. Besides, in series [2] (45° C. oven, 5 days), the “Impurity Content, sample placed” value is “None”.
With `CCOC(=O)C1=C(COCCN)NC(C)=C(C(=O)OC)[C@@H]1c1ccccc1Cl.O=S(=O)(O)c1ccccc1` [5.5%], in series [1], the “Sieving Performance” value is given as “have no stickiness” and the Stickiness result was “no stickiness”.
In the case of `CCOC(=O)C1=C(COCCN)NC(C)=C(C(=O)OC)[C@@H]1c1ccccc1Cl.O=S(=O)(O)c1ccccc1` [5.9%], in series [1], the “Sieving Performance” value was “are less sticky”.
Consider `CCOC(=O)C1=C(COCCN)NC(C)=C(C(=O)OC)[C@@H]1c1ccccc1Cl.O=S(=O)(O)c1ccccc1` [Sample 1], for which the “Impurity Content … of sample” value in series [2] is reported as “None”. Besides, in series [2] (45° C. oven, 5 days), the “change in the appearance” value was “no obvious change” and the “Impurity Content, sample placed” value amounted to 0.07%.
